No end group written: not given here.

For test [1], the target named is HLA-DRA1*0101, DRB1*0405 (DR4*05) (Homo sapiens, UniProt P01903+P01911, A100R/A169T/D86S/F76Y/I96L/K127E/L162R/M171V/N62H/P40V/Q125Y/R42H/S133A/S149N/S66Y/V115G/V209L/W38E). The test is described as follows: DR4*05. The method, then:
(§1) Table printed on a drawing sheet, Figure 9
Head of the field: DR4*05
(§2) The patent's description of the figure: FIG. 9: Diverse patterns of in vitro peptide-MHC II binding for peptides 9K1, 17JK and 15N3K. Binding of peptides 9K1, 17JK and 15N3K to recombinant HLA-DRA1*0101, DRB1*0101 (DR1), DRB1*1501 (DR2), DRB1*0301 (DR3), DRB1*0401 (DR4), DRB1*1101 (DR11), DRB1*0405 (DR4*05) and DRB1*0901 (DR9) was assessed in vitro. IC50 values (µM) are presented and colour-coded per HLA-DR molecule. Low values (green) indicate strong binding, high values (red) indicate low(er) binding.
FIG. 9 depicts IC50 (µM) values of peptides 9K1K, 17JK and 15N3K binding to the indicated HLA-DR molecules and competing with a known competitor peptide. Values should be compared only within each HLA-DR molecule. Low IC50 values (green) indicate the strongest binder per HLA-DR molecule. Highest values per HLA-DR molecule (red) are indicative of the lowest binder for that HLA-DR molecule. Intermediate values are indicated in orange. […] So, combining the peptides into a cocktail treatment, makes the treatment less restricted to a certain HLA-DR type.
(§3) First copying reader's note: The sheet prints no unit; per the patent description the values are IC50 (µM) for peptide binding to the named HLA-DR molecules, with cell shading coding relative binding strength per HLA-DR molecule.

Test [2] has as its target HLA-DRA1*0101, DRB1*0101 (DR1) (Homo sapiens, UniProt P01903+P01911, A100R/D57E/F55L/F60I/F76Y/I96L/L162R/M171V/P40L/Q125E/R42F/V115G/Y59C). As to the kind of experiment: DR1. On the procedure:
as §1, §2
(§4) FIG. 9 depicts IC50 (µM) values of peptides 9K1K, 17JK and 15N3K binding to the indicated HLA-DR molecules and competing with a known competitor peptide. Values should be compared only within each HLA-DR molecule. Low IC50 values (green) indicate the strongest binder per HLA-DR molecule. Highest values per HLA-DR molecule (red) are indicative of the lowest binder for that HLA-DR molecule. Intermediate values are indicated in orange. […]
as §3
Where the first naming reader finds the target: description_of_the_figure: recombinant HLA-DRA1*0101, DRB1*0101 (DR1)

The subject of test [3] is SAg-specific hybridoma cells with fresh or fixed APC (VAVY) cells, MHCII. As to the kind of experiment: Antigen processing independent presentation system (APIPS) assay. Format: cell-based, DR3tg mice. To be noted: 10 or 25 µg/ml peptide, IL-2 ELISA after 48 h. On the procedure:
FIG. 10: Variants of peptide 15N3K are apitopes. The ability of variants of the 15N3K peptide to behave as apitopes (i.e. bind to an MHCII molecule and be presented to a T cell by an antigen-presenting cell without undergoing antigen processing) was tested using an APIPS assay. DR3tg mice were immunised with SAg and hybridoma’s were generated. 5*10^4 SAg-specific hybridoma cells were cultured with 5*10^4 fresh or fixed commercial APC (VAVY) cells. Cultures were stimulated with 10 or 25 µg/ml of peptide, as indicated in the graph. T cell activation was measured by IL-2 ELISA on supernatants collected after 48 h. The graph represents the mean of duplicate measurements ± SEM.
Apitopes (Antigen Processing-Independent epiTOPES) are capable of binding to an MHCII molecule and stimulating a response from SAg-specific T cells without further antigen processing. Variants of peptide 15N3K (SEQ ID NO: 3) were tested for their ability to bind to an MHCII molecule and be presented to a T cell hybridoma without further antigen processing in an in vitro antigen processing independent presentation system (APIPS) assay. In other words, peptides consisting of parts of peptide 15N3K and peptides with various degrees of sequence identity with peptide 15N3K were tested for their ability to behave as apitopes.
All but three of the peptides are apitopes.
Antigen-specific hybridoma clones were tested for their reactivity to the peptides, presented by fixed or not fixed (fresh) cells (APCs). 5x10^4 cells were cultured with 10 µg/ml and 25 µg/ml peptide and 5x10^4 fixed or fresh APCs. To fix APCs, cells were incubated with 0.5% paraformaldehyde (Merck, Darmstadt, Germany) (pH7) for 5 min at room temperature (RT). The fixation reaction was stopped by adding 0.4 M glycine (Sigma-Aldrich) and washing the cells in RPMI-10% FCS. After 48 h, antigen-induced IL-2 production was measured by ELISA (R&D Systems, Abingdon, UK).

For test [4], the target named is HLA-DRA1*0101, DRB1*0301 (DR3) (Homo sapiens, UniProt P01903+P01911, A100K/A102G/A103R/A169T/F55Y/I96L/K41T/L162R/M171V/P40S/Q125H/Q178H/Q39Y/R42S/S66N/T106N/T262R/W38E/Y61H). As to the kind of experiment: DR3. On the procedure: as §1, §2, §4, §3
Where the first naming reader finds the target: description_of_the_figure: recombinant HLA-DRA1*0101, DRB1*0101 (DR1), DRB1*1501 (DR2), DRB1*0301 (DR3)

Chain of HLA-DRA1*0101, DRB1*0301 (DR3) (P01903 26-254 limits assumed, other chains not shown): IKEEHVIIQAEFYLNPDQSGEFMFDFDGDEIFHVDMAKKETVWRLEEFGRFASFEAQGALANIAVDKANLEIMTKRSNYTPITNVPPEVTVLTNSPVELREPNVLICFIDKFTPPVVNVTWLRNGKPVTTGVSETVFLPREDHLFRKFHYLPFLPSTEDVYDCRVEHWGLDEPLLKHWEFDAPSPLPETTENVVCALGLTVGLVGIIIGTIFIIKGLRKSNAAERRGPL

On to KKKLTFRRDLYFSRVQVYKKK-NH2 [17JK], for which the results for the IC50 in test [1] and in test [2] were 17.3 µM and 2.16 µM, respectively.

For KKKVIFKKISRDKSVTIYLGKKK-NH2 [15N3K], the Apitope entry in test [3] is “Yes”. Also, 14.7 µM corresponded to half-maximal inhibition in test [4] (IC50).

The record behind these values is patent US20230203126A1, “A COMPOSITION COMPRISING S-ARRESTIN PEPTIDES” (WORG PHARMACEUTICALS (HANGZHOU) CO., LTD., priority 2019, published 2023).
